Measurements: patent US9321849B2, “Uranium-chelating peptides and uses thereof” (priority 2003, dated 2016)
Where two headings read alike, the source gives them in different places.

Tests used:
[1] = tested on: MLCKp peptide (calmodulin-binding domain of myosin light chain kinase); assay: Tryptophan fluorescence of the MLCKp ligand peptide in the presence of calmodulin; set-up: species or system rabbit; conditions: 5 μM MLCKp
Protocol: The fluorescence spectra are recorded on a Cary Eclipse spectrometer (Varian, France) equipped with a thermostated cuvette holder. The excitation wavelength used is 280 nm with slot widths of 10 nm for excitation and of 2.5 nm for emission. The spectra are recorded between 300 nm and 450 nm in a cuvette with a 1 cm optical path.
In the presence of calcium, calmodulin can bind and activate a large diversity of targets. Among these, the MLCKp peptide, which has 17 residues and is derived from the calmodulin-binding domain of a rabbit muscle myosin light chain kinase (CALBIOCHEM), has the following sequence:
In a first series, a fluorescence spectrum for the tryptophan of the ligand, dissolved at a concentration of 5 μM in a 10 mM MES buffer, at pH 6.5, was recorded as described in example 1.
Excitation of the solution at 280 nm makes it possible to detect an emission at 350 nm, characteristic of a tryptophan exposed to the aqueous solvent.
This is compatible with a structure similar to that obtained in the case of calcium. […] The emission detected is then that of the metal (λ>450 nm) and no longer that of the tryptophan.

[2] = TRLS titration of uranyl nitrate with calmodulin, Dynafit simulation; type: binding; conditions: 0.4 μM uranyl nitrate, 1.0 mM phosphate buffer pH 7.0, two-site simulation
Protocol: (§1) The coordination of uranium (in uranyl form, 2.0 μM) by the native protein in 1 mM phosphate medium was also studied. The complexation of uranium with the protein is reflected by a drop in uranyl fluorescence intensity. The titration spectra are represented in FIG. 13. In another experiment, a 0.4 μM solution of uranyl nitrate in a 1.0 mM phosphate buffer (pH 7.0) was titrated with a solution of calmodulin up to a protein concentration of 8 μM. After the addition of 8 μM of calmodulin, calcium ions were added up to the concentration of 8 mM (FIG. 14). The values for the titration of uranyl by calmodulin were interpreted by simulating the experimental data with a system of equations corresponding to one, two, three or four independent sites for uranium (FIG. 16). The Dynafit software (Kuzmic, P. 1996, Anal. Biochem. 237, 260-273) was used for these simulations. […] The values for competition with the calcium ions were also interpreted with a system of suitable equations and the simulation of the experimental points with this system is given in FIG. 17. […] It is also considered, as a hypothesis, that each of these two sites is independent of the other. […]

[3] = Competition between calcium and uranyl for calmodulin, Dynafit simulation; type: binding; conditions: 8 μM calmodulin, 0.4 μM uranyl, calcium up to 8 mM
Protocol: as §1

calmodulin
increase in intensity of ligand tryptophan fluorescence ([1]; 10 mM MES pH 6.5, one equivalent of calmodulin, absence of metals): 25% | increase in intensity of ligand tryptophan fluorescence ([1]; one equivalent of calmodulin, 10 equivalents of calcium): 20% | ligand tryptophan fluorescence in the presence of uranyl ([1]; one equivalent of calmodulin, uranyl): complete extinction of the fluorescence | Kd ([2]; read-out: dissociation constant, uranyl, first of two high-affinity sites): 3300 ± 400 nM | Kd ([2]; read-out: dissociation constant, uranyl, second of two high-affinity sites): 720 ± 200 nM | displacement of uranium by calcium [3]: just one of the two sites complexed with uranium is displaced by calcium
